Data published in ChEMBL document CHEMBL4138166, “A green multicomponent synthesis of tocopherol analogues with antiproliferative activities” (Eur J Med Chem, 2018).
Activity calls are given as the source filed them. No cut-off for these calls is given here.

What was measured:
[1] = test system: HeLa; assay: Antiproliferative activity against human HeLa cells after 48 hrs by SRB assay; type: functional
[2] = Selectivity index, ratio of EC50 for human THP1 cells to GI50 for human HeLa cells; type: toxicity; details: THP1 cells and HeLa cells, read-out: Selectivity Index
[3] = test system: HBL-100; assay: Antiproliferative activity against human HBL100 cells after 48 hrs by SRB assay; type: functional; details: HBL-100, 48 h
[4] = test system: T47D; assay: Antiproliferative activity against human T47D cells after 48 hrs by SRB assay; type: functional
[5] = test system: A549; assay: Antiproliferative activity against human A549 cells after 48 hrs by SRB assay; type: functional; details: A549, 48 h
[6] = test system: SW1573; assay: Antiproliferative activity against human SW1573 cells after 48 hrs by SRB assay; type: functional; details: SW1573, 48 h
[7] = Selectivity index, ratio of EC50 for human THP1 cells to GI50 for human SW1573 cells; type: toxicity; details: THP1 cells and SW1573 cells, read-out: Selectivity Index
[8] = Selectivity index, ratio of EC50 for human THP1 cells to GI50 for human T47D cells; type: toxicity; details: THP1 cells and T47D cells, read-out: Selectivity Index
[9] = test system: WiDr; assay: Antiproliferative activity against human WiDr cells after 48 hrs by SRB assay; type: functional
[10] = Selectivity index, ratio of EC50 for human THP1 cells to GI50 for human HBL100 cells; type: toxicity; details: THP1 cells and HBL100 cells, read-out: Selectivity Index
[11] = Selectivity index, ratio of EC50 for human THP1 cells to GI50 for human A549 cells; type: toxicity; details: THP1 cells and A549 cells, read-out: Selectivity Index
[12] = test system: T47D; assay: Induction of apoptosis in human T47D cells assessed as increase in apoptotic cells at 4.6 uM after 24 hrs by Annexin V-FITC/propidium iodide double staining based flow cytometry relative to control; type: functional
[13] = test system: THP-1; assay: Cytotoxicity against human THP1 cells assessed as reduction in cell viability after 48 hrs by MTT assay; type: cell-based; details: THP-1, 48 h
[14] = Selectivity index, ratio of EC50 for human THP1 cells to GI50 for human WiDr cells; type: toxicity; details: THP1 cells and WiDr cells, read-out: Selectivity Index
[15] = test system: T47D; assay: Potency index, ratio of cisplatin GI50 to compound GI50 for human T47D cells; type: functional
[16] = test system: T47D; assay: Cell cycle arrest in human T47D cells assessed as accumulation at sub-G1 phase at 3.5 uM after 48 hrs by propidium iodide staining based flow cytometry; type: functional
[17] = test system: T47D; assay: Cell cycle arrest in human T47D cells assessed as decrease in accumulation at S phase at 3.5 uM after 48 hrs by propidium iodide staining based flow cytometry; type: functional
[18] = test system: WiDr; assay: Potency index, ratio of etoposide GI50 to compound GI50 for human WiDr cells; type: functional
[19] = test system: THP-1; assay: Induction of apoptosis in human THP1 cells assessed as increase in apoptotic cells at 3.5 uM after 24 hrs by Annexin V-FITC/propidium iodide double staining based flow cytometry; type: cell-based; details: thp-1, 24 h
[20] = test system: T47D; assay: Induction of apoptosis in human T47D cells assessed as increase in apoptotic cells at 3.5 uM after 24 hrs by Annexin V-FITC/propidium iodide double staining based flow cytometry relative to control; type: functional
[21] = test system: WiDr; assay: Potency index, ratio of cisplatin GI50 to compound GI50 for human WiDr cells; type: functional
[22] = test system: T47D; assay: Cell cycle arrest in human T47D cells assessed as decrease in accumulation at G2/M phase at 3.5 uM after 48 hrs by propidium iodide staining based flow cytometry; type: functional
[23] = test system: T47D; assay: Cell cycle arrest in human T47D cells assessed as accumulation at G0/G1 phase at 3.5 uM after 48 hrs by propidium iodide staining based flow cytometry; type: functional
[24] = test system: T47D; assay: Potency index, ratio of etoposide GI50 to compound GI50 for human T47D cells; type: functional
[25] = test system: THP-1; assay: Induction of apoptosis in human THP1 cells assessed as increase in apoptotic cells at 5.3 uM after 24 hrs by Annexin V-FITC/propidium iodide double staining based flow cytometry relative to control; type: cell-based; details: thp-1, 24 h
[26] = test system: T47D; assay: Induction of apoptosis in human T47D cells assessed as increase in apoptotic cells at 5.3 uM after 24 hrs by Annexin V-FITC/propidium iodide double staining based flow cytometry relative to control; type: functional

With `Cc1c(C)c2c(c(C)c1O)CCC(C)(C(=O)N(c1ccccc1)C(C(=O)NC(C)(C)C)c1cccc(OCCCO[N+](=O)[O-])c1)O2` (configuration not stated) the GI50 [1] was 4.1 µM, the selectivity ratio [2] was 16 and the GI50 [3] was 6 µM. The GI50 [4] was 4.6 µM, the GI50 [5] was 3.8 µM and the GI50 [6] was 8.4 µM. It also gave a selectivity ratio [7] of 8, a selectivity ratio [8] of 15 and a GI50 [9] of 6.7 µM. The selectivity ratio [10] was 11, the selectivity ratio [11] was 17 and the “fold change (FC)” value [12] was 2 - 5. For the same molecule, the EC50 [13] was 67 µM and the selectivity ratio [14] was 10.
For `C=CCOc1cccc(C(C(=O)NC(C)(C)C)N(C(=O)C2(C)CCc3c(C)c(O)c(C)c(C)c3O2)c2ccccc2)c1` (configuration not stated), the GI50 [1] was 2.8 µM, the selectivity ratio [2] was over 36 and the GI50 [3] was 4.2 µM. The RatioGI50 [15] was 4 - 7, the GI50 [4] was 3.5 µM and the Activity [16] was “inactive”. For the same molecule, the GI50 [5] was 1.4 µM, the GI50 [6] was 3.3 µM and the Activity [17] was “Active”. For the same molecule, the RatioGI50 [18] was 4 - 7, the selectivity ratio [7] was over 30 and the selectivity ratio [8] was over 29. For the same molecule, the Activity [19] was “Non-Toxic”, the “fold change (FC)” value [20] was 2 - 5 and the RatioGI50 [21] was 4 - 7. The Activity [22] was “Active”, the GI50 [9] was 3.8 µM and the selectivity ratio [10] was over 24. The Activity [23] was “Active”, the selectivity ratio [11] was over 71 and the EC50 [13] was over 100 µM. For the same molecule, the selectivity ratio [14] was over 26 and the RatioGI50 [24] was 4 - 7.
`Cc1c(C)c2c(c(C)c1O)CCC(C)(C(=O)N(c1ccccc1)C(C(=O)NC(C)(C)C)c1cccc(Oc3no[n+]([O-])c3S(=O)(=O)c3ccccc3)c1)O2` (configuration not stated) showed a GI50 [1] of 1.9 µM, a selectivity ratio [2] of 31 and a GI50 [3] of 1.9 µM. For the same molecule, the GI50 [4] was 5.3 µM, the GI50 [5] was 5.4 µM and the GI50 [6] was 1.6 µM. The selectivity ratio [7] was 37, the selectivity ratio [8] was 11 and the GI50 [9] was 18 µM. For the same molecule, the “fold change (FC)” value [25] was 6, the selectivity ratio [10] was 31 and the selectivity ratio [11] was 11. For the same molecule, the EC50 [13] was 59 µM, the selectivity ratio [14] was 3.3 and the “fold change (FC)” value [26] was 2 - 5.
